# According to patent US8629272B2, “Tricyclic pyrimidine derivatives as wnt antagonists” (Deutsches Krebsforschungszentrum, priority 2009, dated 2014):
# pIC50: −log10 of the molar value.
# Key:
# Type in all cases: cell-based
# Hek293T = assay: Cytotoxicity in Hek293T, CellTiterGlo; conditions: 24 h
# Procedure: For examination of cytotoxicity in these cancer cell lines the commercial available CellTiterGlo® Reagent (Promega, USA) was used according to the manufactor. Compounds were applied to Hek293T (denoted (1)) or HepG2 (denoted (2)), cultured in Dulbecco's Modified Eagles Medium, supplemented with 10% fetal calf serum and 1% penicillin/streptomycin. Cells were grown in T75 flasks at 37° C., 5% CO2 and trypsinized when 60-80% confluent by adding 2 ml of 0.25% Trypsin-EDTA solution. Cells were then re-suspended into culture medium yielding approx. 4000 cells (1) or 4500 cells (2), suspended in 30 microl medium. 48 h after cell seeding, compounds were added to yield the desired final concentrations. 24 h after compound addition cytotoxicity was evaluated. For this purpose the media was removed and CellTiterGlo® was added according to the manufactors manual. In this assay the luciferase emission readout is directly correlated with the cellular amount of ATP, low luciferase emission thus is reflecting cytotoxicity of a compound. For the evaluation of the IC50 the compound was applied in increasing concentrations yielding final concentrations per well of 5 nM-100 microM.
# Wnt signalling pathway = assay: Wnt-sensitive reporter gene assay (6xTCF-luciferase, pTOP-FLASH) in Hek293T cells; design: Normalized Wnt pathway (inhibitory) activity: scale not given here; conditions: for pIC50: Homo sapiens, HEK-293T, Hek293T, 24 h incubation, 5 nM-100 microM, read-out: IC50 of the Wnt signalling pathway inhibiting activity
# Procedure: To screen for small-molecule modulators of the Wnt signalling pathway, a reporter gene based assay describing the modulation of the TCF4 transcription factor was used. More specifically 4000 Hek293T cells were seeded into 384 high density plates. 24 h after seeding a Wnt-sensitive reporter (6×TCF-luciferase (Firefly) (pTOP-FLASH; “Armadillo co activates transcription driven by the product of the drosophila segment polarity gene dTCF”, Cell, 1997, 88(6), pages 789-799) and constitutively expressed control reporter (Renilla luciferase pCMV-RL) were transfected into Hek293T. Wnt signaling was stimulated by cotransfecting mouse Wnt1, mouse Frizzled 8 and human LRP6 according to “Casein kinase 1 gamma couples Wnt receptor activation to cytoplasmic signal transduction”, Nature, 2005, 438 (7069), pages 867-872. 24 h after pathway stimulation compounds were added at a concentration of 10 microM and allowed to incubate for 24 h. For the evaluation of the IC50 the compound was applied in increasing concentrations yielding final concentrations per well of 5 nM-100 microM.
# human fibroblasts HS-68 = assay: Cell line specific cytotoxicity, count of Hoechst labeled nuclei, normal cells HS68
# Procedure: For examination of cell line-specific cytotoxicity, compounds were applied to human colorectal cancer cells (HCT116, denoted (1); SW480, denoted (2); Dld-1, denoted (3)) and human fibroblasts (HFF-1, denoted (4); HS-68, denoted (5)), cultured in Mc Coy's (1) and Dulbecco's Modified Eagles Medium (2-5), supplemented with 10% ((1)-(3)) and 20% ((4), (5)) fetal calf serum and 1% penicillin/streptomycin. Cells were grown in T75 flasks at 37° C., 5% CO2 and trypsinized when 60-80% confluent by adding 2 ml of 0.25% Trypsin-EDTA solution. Cells were then re-suspended into culture medium and approx. 750 cells, suspended in 45 microl medium, were plated into each well of a black 384-well plate for fluorescence imaging experiments. […] Compound incubation was terminated by (a) fixation and (b) permeabilisation of cells, followed by (c) fluorescence labeling of cell nuclei for cytometric quantification or by immunocytochemistry for microscopic evaluation of cell morphology. The three steps were performed by replacing the solution of the previous step in each well of a 384-well plate by (a) 30 microl PBS (phosphate buffered saline) containing 5% PFA (paraformaldehyde), (b) 30 microl PBS containing 0.2% TritonX-100 and (c) 10 microl PBS containing Hoechst-33342 for cytometry or Hoechst-33342, FITC (fluorescein isothiocyanate-) labeled α-tubulin antibodies and TRITC-(tetramethylrhodamine isothiocyanate-) labeled phalloidin antibodies for microscopy. Solutions were incubated for 15 (a,b) and 30 min (c) in the dark at room temperature. Cells were washed twice between each step with 30 microl PBS. The assay system was miniaturized and adapted to automated workflow using liquid-handling robotics.
# Cell line-specific cytotoxicity was quantified by counting the number of Hoechst labeled nuclei per well of a 384-well plate using a plate cytometer. Data obtained with the cytometer was analysed using standard data analysis software. […]
SMILES,Normalized toxicity values (Hek293T) (Hek293T; 0.005 microM),Normalized toxicity values (Hek293T) (Hek293T; 0.015 microM),Normalized toxicity values (Hek293T) (Hek293T; 0.046 microM),Normalized toxicity values (Hek293T) (Hek293T; 0.137 microM),Normalized toxicity values (Hek293T) (Hek293T; 0.412 microM),Normalized toxicity values (Hek293T) (Hek293T; 1.235 microM),Normalized toxicity values (Hek293T) (Hek293T; 3.704 microM),Normalized toxicity values (Hek293T) (Hek293T; 11.111 microM),Normalized toxicity values (Hek293T) (Hek293T; 33.333 microM),Normalized toxicity values (Hek293T) (Hek293T; 100.000 microM),Normalized Wnt pathway (inhibitory) activity (Wnt signalling pathway; 0.005 microM),Normalized Wnt pathway (inhibitory) activity (Wnt signalling pathway; 0.015 microM),Normalized Wnt pathway (inhibitory) activity (Wnt signalling pathway; 0.137 microM),Normalized Wnt pathway (inhibitory) activity (Wnt signalling pathway; 0.412 microM),Normalized Wnt pathway (inhibitory) activity (Wnt signalling pathway; 1.235 microM),Normalized Wnt pathway (inhibitory) activity (Wnt signalling pathway; 3.704 microM),Normalized Wnt pathway (inhibitory) activity (Wnt signalling pathway; 11.111 microM),Normalized Wnt pathway (inhibitory) activity (Wnt signalling pathway; 33.333 microM),Normalized Wnt pathway (inhibitory) activity (Wnt signalling pathway; 100.000 microM),pIC50 (Wnt signalling pathway),other results
"CCOC(=O)C1=C(C)Nc2c(c3nnc(-c4cccc(OC)c4)n3c(=O)n2-c2ccccc2)C1c1ccccc1 (centres unmarked) [Example 15, 3-(3-Methoxy-phenyl)-7-methyl-4-oxo-5,9-diphenyl-4,5,6,9-tetrahydro-1,2,3a,5,6-pentaaza-cyclopenta[a]naphthalene-8-carboxylic acid ethyl ester]",1.1205,1.0500,1.2200,0.9283,0.9603,0.8915,1.0113,1.1550,1.0515,1.4175,0.9417,0.9230,1.0963,0.9830,0.8830,0.2973,0.2350,0.4200,0.4505,5.87,Normalized cell count (HS68) (human fibroblasts HS-68; 0.005 micoM): 1; Normalized cell count (HS68) (human fibroblasts HS-68; 0.015 micoM): 0.9166; Normalized cell count (HS68) (human fibroblasts HS-68; 0.046 micoM): 1.018; Normalized cell count (HS68) (human fibroblasts HS-68; 0.137 micoM): 0.9967; Normalized cell count (HS68) (human fibroblasts HS-68; 0.412 micoM): 0.9484; Normalized cell count (HS68) (human fibroblasts HS-68; 1.235 micoM): 0.961; Normalized cell count (HS68) (human fibroblasts HS-68; 3.704 micoM): 0.9772; Normalized cell count (HS68) (human fibroblasts HS-68; 11.111 micoM): 0.9757; Normalized cell count (HS68) (human fibroblasts HS-68; 33.333 micoM): 0.9593; Normalized cell count (HS68) (human fibroblasts HS-68; 100.000 micoM): 0.9099
"CCOC(=O)C1=C(c2ccccc2)c2c(n(-c3ccccc3)c(=O)n3c(-c4cccc(OC)c4)nnc23)NC1C (centres unmarked) [Example 16, 3-(3-Methoxy-phenyl)-7-methyl-4-oxo-5,9-diphenyl-4,5,6,7-tetrahydro-1,2,3a,5,6-pentaaza-cyclopenta[a]naphthalene-8-carboxylic acid ethyl ester]",1.0215,0.8660,0.8370,0.8375,0.8593,0.8530,0.8778,0.9213,0.9450,0.9233,0.9907,1.2275,1.0070,1.0435,0.9565,0.5445,0.3755,0.3063,0.1990,5.53,Normalized Wnt pathway (inhibitory) activity (Wnt signalling pathway; 0.046 microM): 1.0533; Normalized cell count (HS68) (human fibroblasts HS-68; 0.005 micoM): 1; Normalized cell count (HS68) (human fibroblasts HS-68; 0.015 micoM): 0.9904; Normalized cell count (HS68) (human fibroblasts HS-68; 0.046 micoM): 1.038; Normalized cell count (HS68) (human fibroblasts HS-68; 0.137 micoM): 1.056; Normalized cell count (HS68) (human fibroblasts HS-68; 0.412 micoM): 1.111; Normalized cell count (HS68) (human fibroblasts HS-68; 1.235 micoM): 1.051; Normalized cell count (HS68) (human fibroblasts HS-68; 3.704 micoM): 1.175; Normalized cell count (HS68) (human fibroblasts HS-68; 11.111 micoM): 1.144; Normalized cell count (HS68) (human fibroblasts HS-68; 33.333 micoM): 0.8005; Normalized cell count (HS68) (human fibroblasts HS-68; 100.000 micoM): 0.9046
CCOC(=O)C1=C(c2ccccc2)c2c(n(-c3ccccc3)c(=O)n3c(-c4ccc(OC)cc4)nnc23)NC1C (centres unmarked) [Example 18],1.1075,1.0110,1.0523,1.0088,1.0313,1.0733,1.1200,1.0825,1.1175,0.9883,0.8680,1.1175,1.0825,1.1223,0.7260,0.8798,0.6365,0.4930,0.2505,4.66,Normalized Wnt pathway (inhibitory) activity (Wnt signalling pathway; 0.046 microM): 1.0168; Normalized cell count (HS68) (human fibroblasts HS-68; 0.005 micoM): 1; Normalized cell count (HS68) (human fibroblasts HS-68; 0.015 micoM): 0.9938; Normalized cell count (HS68) (human fibroblasts HS-68; 0.046 micoM): 1.014; Normalized cell count (HS68) (human fibroblasts HS-68; 0.137 micoM): 0.9488; Normalized cell count (HS68) (human fibroblasts HS-68; 0.412 micoM): 0.9736; Normalized cell count (HS68) (human fibroblasts HS-68; 1.235 micoM): 1.014; Normalized cell count (HS68) (human fibroblasts HS-68; 3.704 micoM): 0.7952; Normalized cell count (HS68) (human fibroblasts HS-68; 11.111 micoM): 0.5499; Normalized cell count (HS68) (human fibroblasts HS-68; 33.333 micoM): 0.3651; Normalized cell count (HS68) (human fibroblasts HS-68; 100.000 micoM): 0.4385
